From ChEMBL document CHEMBL1153472 (Bioorg Med Chem Lett, 2009)

Assays:
[1] = AUC (0 to 24 hrs) in po dosed dog; assay type: ADME, organism-based, Canis lupus familiaris; set-up: time < 24 hr, route oral; details: plasma
[2] = molecular target: Beta-3 adrenergic receptor (Homo sapiens, UniProt P13945); assay: Agonist activity at human recombinant adrenergic beta3 receptor expressed in CHO cells assessed as stimulation of cAMP level after 1 hr by enzyme immunoassay; assay type: functional, cell-based
Chain of Beta-3 adrenergic receptor (Homo sapiens, UniProt P13945) (P13945 whole entry): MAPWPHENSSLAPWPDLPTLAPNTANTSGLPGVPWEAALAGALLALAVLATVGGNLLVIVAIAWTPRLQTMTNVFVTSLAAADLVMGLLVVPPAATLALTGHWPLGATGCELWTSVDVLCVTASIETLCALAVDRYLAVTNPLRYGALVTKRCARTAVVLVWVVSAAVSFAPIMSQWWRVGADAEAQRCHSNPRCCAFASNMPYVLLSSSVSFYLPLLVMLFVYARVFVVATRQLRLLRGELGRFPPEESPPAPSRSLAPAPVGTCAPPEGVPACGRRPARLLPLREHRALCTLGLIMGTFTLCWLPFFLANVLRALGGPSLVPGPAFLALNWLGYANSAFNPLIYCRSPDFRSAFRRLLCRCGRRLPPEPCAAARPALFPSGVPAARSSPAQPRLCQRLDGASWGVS

[3] = molecular target: Beta-1 adrenergic receptor (Homo sapiens, UniProt P08588); assay: Agonist activity at human recombinant adrenergic beta-1 receptor expressed in CHO cells assessed as stimulation of cAMP level after 1 hr by enzyme immunoassay; assay type: functional, cell-based
Chain of Beta-1 adrenergic receptor (P08588 whole entry): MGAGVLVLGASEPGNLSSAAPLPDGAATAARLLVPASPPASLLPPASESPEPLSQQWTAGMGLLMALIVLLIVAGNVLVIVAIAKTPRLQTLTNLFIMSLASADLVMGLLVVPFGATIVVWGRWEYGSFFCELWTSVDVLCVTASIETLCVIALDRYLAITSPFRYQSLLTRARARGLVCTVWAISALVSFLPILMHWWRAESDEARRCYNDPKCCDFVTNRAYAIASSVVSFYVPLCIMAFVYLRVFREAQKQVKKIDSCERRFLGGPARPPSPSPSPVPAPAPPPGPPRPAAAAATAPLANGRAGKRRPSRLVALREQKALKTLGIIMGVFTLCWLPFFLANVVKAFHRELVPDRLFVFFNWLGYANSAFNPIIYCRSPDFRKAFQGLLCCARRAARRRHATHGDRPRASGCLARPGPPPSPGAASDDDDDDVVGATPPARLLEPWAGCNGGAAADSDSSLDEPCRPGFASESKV

[4] = Cmax in po dosed dog; assay type: ADME, organism-based, Canis lupus familiaris; set-up: route oral; details: in vivo
[5] = system: Canis familiaris; assay: Inhibition of carbachol-induced increase in intravesical pressure in intraduodenally dosed Beagle dog overactive bladder model administered after carbachol challenge followed by reinjection of carbachol 30 mins post drug dose measured for 180 mins; assay type: functional; details: Canis lupus familiaris, intraduodenal
[6] = Oral bioavailability in dog; assay type: ADME, organism-based, Canis lupus familiaris; details: in vivo
[7] = Protein binding in dog; assay type: ADME, organism-based, Canis lupus familiaris; details: in vivo, read-out: PB (converted)
[8] = Half life in iv dosed dog; assay type: ADME, organism-based, Canis lupus familiaris; details: in vivo
[9] = molecular target: Beta-2 adrenergic receptor (Homo sapiens, UniProt P07550); assay: Agonist activity at human recombinant adrenergic beta2 receptor expressed in CHO cells assessed as stimulation of cAMP level after 1 hr by enzyme immunoassay; assay type: functional, cell-based
Chain of Beta-2 adrenergic receptor (P07550 whole entry): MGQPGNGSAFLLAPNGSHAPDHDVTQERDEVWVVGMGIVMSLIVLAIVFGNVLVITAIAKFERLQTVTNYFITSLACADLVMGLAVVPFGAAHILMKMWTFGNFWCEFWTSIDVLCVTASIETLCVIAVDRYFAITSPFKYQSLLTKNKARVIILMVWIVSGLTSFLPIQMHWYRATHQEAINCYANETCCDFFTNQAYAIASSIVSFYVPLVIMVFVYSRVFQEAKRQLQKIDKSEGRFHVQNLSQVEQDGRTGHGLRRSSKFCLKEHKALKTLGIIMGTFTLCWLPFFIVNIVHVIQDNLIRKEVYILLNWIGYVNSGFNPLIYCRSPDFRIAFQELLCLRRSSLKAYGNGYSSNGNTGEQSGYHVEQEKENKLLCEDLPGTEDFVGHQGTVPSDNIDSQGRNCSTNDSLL

[10] = molecular target: Beta-3 adrenergic receptor (Canis lupus familiaris, UniProt O02662); assay: Agonist activity at dog recombinant adrenergic beta3 receptor expressed in CHO cells assessed as stimulation of cAMP level after 1 hr by enzyme immunoassay; assay type: functional, cell-based
Chain of Beta-3 adrenergic receptor (Canis lupus familiaris, UniProt O02662) (O02662 whole entry): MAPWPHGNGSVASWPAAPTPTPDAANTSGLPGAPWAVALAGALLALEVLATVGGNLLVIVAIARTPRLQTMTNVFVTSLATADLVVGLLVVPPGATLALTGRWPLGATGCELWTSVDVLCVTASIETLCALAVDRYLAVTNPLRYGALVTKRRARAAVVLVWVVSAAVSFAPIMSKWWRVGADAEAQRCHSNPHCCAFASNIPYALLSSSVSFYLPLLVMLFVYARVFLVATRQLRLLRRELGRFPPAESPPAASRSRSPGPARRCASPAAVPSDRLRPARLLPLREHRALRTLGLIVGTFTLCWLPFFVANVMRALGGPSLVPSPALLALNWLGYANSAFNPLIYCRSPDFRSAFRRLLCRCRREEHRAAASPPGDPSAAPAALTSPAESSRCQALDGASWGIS

[11] = Total clearance in iv dosed dog; assay type: ADME, organism-based, Canis lupus familiaris; details: in vivo

Row | Structure (SMILES) | AUC(0-t) at 24 h [1] [ng·h/mL] | EC50 [2] [nM] | EC50 [3] [nM] | Cmax [4] [ng/mL] | bioavailability [6] [%] | fraction unbound [7] | half-life [8] [min] | EC50 [9] [µM] | EC50 [10] [nM] | clearance [11] [mL/min/kg] | ED50 [5] [mg/kg]
1 | CC(=O)Nc1ccc([C@@H](O)CNCCc2ccc(-c3ccc(C(=O)NS(C)(=O)=O)c(OC4CCCCC4)c3)cc2)cn1 | 86.5 | 0.23 | > 1000 | 16.2 | 43 |  | 108 |  |  | 8.9 | 
2 | CS(=O)(=O)NC(=O)c1ccc(-c2ccc(C[C@@H](CO)NC[C@H](O)c3ccccc3)cc2)cc1OC1CCCCC1 | 654 | 0.82 | > 1000 | 59.1 | 95 |  | 300 |  |  | 2.4 | 
3 | CC(C)Oc1cc(-c2ccc(CCNC[C@H](O)c3ccc(N)cc3)cc2)ccc1C(=O)NS(C)(=O)=O |  |  | > 1000 |  |  |  |  |  |  |  | 
4 | CC(C)Oc1cc(-c2ccc(CCNC[C@H](O)c3cccc(N)c3)cc2)ccc1C(=O)NS(C)(=O)=O | 143 | 6 | > 1000 | 17.2 | 46 |  | 294 |  |  | 5.1 | 
5 | COc1ccc([C@@H](O)[C@H](C)NCCc2ccc(-c3ccc(C(=O)NS(C)(=O)=O)c(OC4CCCCC4)c3)cc2)cc1 |  | 28 | > 1000 |  |  |  |  |  |  |  | 

Second part, led by results:

Row | AUC(0-t) at 24 h [1] [ng·h/mL] | EC50 [2] [nM] | EC50 [3] [nM] | Cmax [4] [ng/mL] | bioavailability [6] [%] | fraction unbound [7] | half-life [8] [min] | EC50 [9] [µM] | EC50 [10] [nM] | clearance [11] [mL/min/kg] | Structure (SMILES) | ED50 [5] [mg/kg]
6 | 7.3 | 0.044 | 130 | 2.9 |  |  |  |  |  |  | CC(C)Oc1cc(-c2ccc(CCN[C@@H](C)[C@H](O)c3cccc(O)c3)cc2)ccc1C(=O)NS(C)(=O)=O | 
7 | 117 | 0.16 | 290 | 23.2 | 56 | 0.1 | 402 | > 10 | 1 | 7.9 | CC(C)Oc1cc(-c2ccc(CCN[C@@H](C)[C@H](O)c3ccc(O)cc3)cc2)ccc1C(=O)NS(C)(=O)=O | 5.9
8 |  | 0.1 | 73 |  |  |  |  |  |  |  | CC(C)Cc1cc(-c2ccc(C[C@@H](C)NC[C@H](O)c3ccccc3)cc2)ccc1C(=O)NS(C)(=O)=O | 
9 | 79.3 | 1.2 | > 1000 | 6.1 |  |  |  |  |  |  | CS(=O)(=O)NC(=O)c1ccc(-c2ccc(CCNC[C@H](O)c3cccc(N)c3)cc2)cc1OC1CCCCC1 | 
10 |  |  | > 1000 |  |  |  |  |  |  |  | CS(=O)(=O)NC(=O)c1ccc(-c2ccc(CCNC[C@H](O)c3ccc(N)cc3)cc2)cc1OC1CCCCC1 | 
11 | 39.7 | 0.35 | 110 | 5.3 | 25 |  | 210 | > 10 |  | 11 | C[C@H](NCCc1ccc(-c2ccc(C(=O)NS(C)(=O)=O)c(OC3CCCCC3)c2)cc1)[C@H](O)c1ccc(O)cc1 | 
12 | 4.4 | 0.26 | 150 | 1.1 |  |  |  |  |  |  | CC(C)Oc1cc(-c2ccc(CCNC[C@H](O)c3ccc(O)c(NS(C)(=O)=O)c3)cc2)ccc1C(=O)NS(C)(=O)=O | 
